In patent US10098895B2, “Treatment of symptoms related to neurodegenerative disorders through pharmacological dermal activation of cranial nerves” (GLIA, LLC, priority 2016, dated 2018):
“Also recorded” adds a separate entry of the source.

How the values were obtained:
[1] = tested on: c-Fos-positive neurons of the spinal trigeminal nucleus; experiment: Example 10: effect of topical progesterone on neural c-Fos expression in rat brainstem; format: in vivo; settings: progesterone 1% on the forehead, less than 0.2 mg per dose, two hours later
Protocol: A study was conducted in a rat model using the same formulation of progesterone and the same route of administration as had been used by the individuals in the preceding examples. In the study, 7 rats were treated with progesterone 1% on the forehead, estimated to be less than 0.2 mg per dose, and 6 rats received placebo. Two hours later the animals were perfused and brainstems removed. Brainstem tissues were processed for immunohistochemistry using an anti-c-Fos antibody to identify c-Fos protein in cell nuclei that can be counted to assess the activity of c-Fos-positive neurons. Two regions of the spinal trigeminal nucleus were examined: (i) rostral spinal trigeminal nucleus (Vsp) subnucleus interpolaris/subnucleus caudalis (Vi/Vc) region and (ii) caudal Vsp subnucleus caudalis/cervical 1 (Vc/C1) region. […] The rat model confirmed forehead application of progesterone signaled the neurons responsible for activation of tear film production. Various authors and experiments had confirmed the role of neurons in the rostral subnucleus interpolaris (Vi/Vc) and caudalis (Vc/C1) region of brain stem within the spinal trigeminal nucleus (Vsp), a major termination zone for trigeminal sensory fibers, to innervate the eye. When cFos genes in these neurons are activated, cFos proteins are produced that can be stained to count the number of activated neurons. (Meng et al., 1996; Meng et al., 2013).

chronic ocular GVHD [2] = experiment: Example 6: third case of chronic ocular GVHD, Tearscope examination; format: in vivo, human; settings: progesterone 1% to forehead, single dose
Protocol: A patient with chronic ocular GVHD was examined and found to have ocular surface disease in both eyes, including filamentary keratitis. Upon examination by Tearscope there was a lack of tear film production evident in both eyes along with pronounced filaments in the left eye. They were treated with progesterone 1% to their forehead and re-examined 50 minutes later by Tearscope.

essential tremor = experiment: Example 7: essential tremor subject with contact lens discomfort; format: in vivo, human
Protocol: A person developed persistent right hand tremors of a kinetic (non-resting) type that has been continuous over the past 6 years. […] This condition had not worsened over time. […] Initially, their doctor thought that these symptoms were stress related and they have been taking 2.5 mg of escitalopram for over 6 years. […] The subject was not on hormone replacement therapy or any other medication.
Concomitantly, the subject suffered from uncomfortable eyes, with a sticky burning sensation and development of blurred vision after about 5-6 hours of contact lens wear. For the past 3 years, the subject was administered 1% progesterone gel (1 mg per day) by dermal application to the forehead once per night. The progesterone gel prolonged comfortable contact lens wear time with sustained visual acuity from 5-6 hours to greater than 15 hours. […] After 2 years of treatment, the benefits of progesterone dermal application persisted for at least 3 days without treatment. There was no effect of the progesterone on their tremor symptoms.
After allowing for washout of progesterone for 3 days, they began forehead application of 0.5-0.75 mg dronabinol once daily at night.
The dronabinol administration regimen was altered by dividing equally the once daily dose of 0.5-0.75 mg dronabinol between the conchae of the left ear, the conchae of the right ear, and the forehead. […] Comfortable contact lens wear, with ease of insertion and removal, and visual acuity extends for 15 hours or more after dronabinol application.
Contact lens comfort wear duration was greater than 15 hours.
In April 2017, the subject, while still being treated with 1% progesterone applied to the forehead, instituted a once-daily low dose topical testosterone applied to the forehead and ear conchae to determine if doing so would produce a beneficial impact on further tremor reduction and in particular essential tremor triggered by caffeine consumption. […] They stopped the treatment to assess whether the tremor would return to pre-testosterone treatment levels. As of August 2017, the subject is without noticeable tremor. The caffeine trigger for tremor onset, which had been recognized throughout all treatments, has not re-appeared since the completion of the 4-week testosterone treatment. The subject continues on low-dose progesterone 1% applied daily to the forehead as the only treatment.

[3] = tested on: Parkinson's tremor and ocular graft-versus-host disease; experiment: Example 3: Parkinson's tremor and co-morbid ocular graft-versus-host disease, topical progesterone; format: in vivo, human
Excerpt: A person was diagnosed with Parkinson's disease over 3 years ago, leukemia about 2 years ago, and ocular graft versus host disease resulting from allogeneic stem cell treatment for the leukemia. The patient has been on oral carbidopa-levodopa for at least 2 years.
The patient started treatment with twice daily progesterone 1% gel applied to the forehead to promote ocular secretion of tear film, and to resolve other symptoms and signs of surface eye disease. […] On a follow up visit 5 weeks later, they reported continued relief from burning and photophobia.
When the patient was first seen in June 2016, they had noticeable significant tremors in both hands and multiple fingers. These were related to their Parkinson's disease as diagnosed and included muscle contractions, i.e., dyskinesia, related to their carbidopa-levodopa oral treatment.
During the 5-week ophthalmologist follow-up visit, the progesterone treatment regimen was performed in the office in modified form. More specifically, the daily dose of progesterone was divided, with 1 mg applied to the concha of each ear, excluding the forehead, to which progesterone had been applied 6 hours earlier. The patient reported improved moisture and comfort in both eyes approximately 2 minutes post application.
The patient had taken carbidopa-levodopa extended release medication at 6 am that morning, with an added immediate release dose at 8 am. The visit to the ophthalmologist was at 2 pm. At that point there was uncontrolled movement of the hands (dyskinesia) along with finger vibrations. The patient reported that the usual duration of efficacy of their carbidopa-levodopa regimen was 4 hours. Normally they would have taken another carbidopa-levodopa dose at 2 pm. Instead, progesterone was applied to the concha of both ears as described, supra.

chronic ocular GVHD [4] = experiment: Example 4: chronic ocular GVHD, progesterone 1% to the forehead; format: in vivo, human; settings: after 4 weeks
Excerpt: A patient with chronic ocular GVHD, upon examination, had numerous ocular surface conditions as well as damaged Meibomian glands and ocular disease behind the eye. There was notable ocular surface disease including no visible production of tear film observed by Tearscope, profuse exudate in eyes, lid sticking, and recurring filamentary keratitis.

[5] = progesterone 0.5% to the concha of both ears

CC(=O)[C@H]1CC[C@H]2[C@@H]3CCC4=CC(=O)CC[C@]4(C)[C@H]3CC[C@]12C [progesterone]
number of activated (c-Fos-positive) neurons in the Vc/C1 region, compared to placebo [1]: but not the Vc/C1 region
number of activated (c-Fos-positive) neurons in the Vi/Vc region, compared to placebo ([1]; 7 rats vs 6 placebo): significantly greater number of activated neurons; also recorded: significant increase in activated neurons
comfort, patient-reported (chronic ocular GVHD [2]): improved comfort
filaments in the left eye (chronic ocular GVHD [2]; 50 minutes later): flushing of the filaments in the left eye
tear film production by Tearscope (chronic ocular GVHD [2]; 50 minutes later): production of tear film in secretions in both eyes
tremor symptoms (essential tremor; 1% progesterone gel (1 mg per day) to forehead): no effect
comfortable contact lens wear time with sustained visual acuity (essential tremor; 1% progesterone gel (1 mg per day) to forehead once per night, from 5-6 hours before): greater than 15 hours
persistence of benefits without treatment (essential tremor; after 2 years of progesterone dermal application to forehead): at least 3 days
adverse events (essential tremor; human, in vivo): no adverse events
routine mammography and serum hormone levels (essential tremor; human, in vivo): normal
comfortable contact lens wear (essential tremor; low dose progesterone 1% to the forehead only, daily, 12 months up to August 2017): 15 h
tremor on maintenance treatment (essential tremor; maintenance dose of progesterone 1% to forehead after testosterone course): tremor-free
contact lens comfort wear duration (essential tremor; [5]): greater than 15 hours
hand tremor (essential tremor; [5]): subsided to the same degree as it did with dronabinol treatment
onset of tremor cessation ([3]; low dose progesterone USP added to conchae of outer ears): rapid cessation of tremor within minutes
time to improved moisture and comfort in both eyes ([3]; progesterone 1 mg to the concha of each ear): approximately 2 minutes
reduction of tremors in hands and fingers in frequency and amplitude ([3]; progesterone 1 mg to the concha of each ear, 2 minutes post application): about 90%
tear film secretion ([3]; progesterone 1% gel twice daily to forehead, after initial treatment): tear film secretion was improved
photophobia and burning ([3]; progesterone 1% gel twice daily to forehead, after initial treatment, on oral carbidopa-levodopa): immediate relief of photophobia and burning
facial masking and facial expression ([3]; progesterone applied to ear conchae regions): decreased facial masking and more voluntary facial expressions
hand and finger tremors ([3]; progesterone applied to the forehead only, 5 weeks): no change seen in the hand and finger tremors
tremor ([3]; topical progesterone to both conchae and forehead, carbidopa-levodopa at lower dosing frequency, 5 days): remained tremor-free until the subsequent visit 5 days later
exudate in both eyes (chronic ocular GVHD [4]): noticeable decrease in exudate
lid sticking and friction (chronic ocular GVHD [4]): improvement in lid sticking and friction
tear film production by Tearscope (chronic ocular GVHD [4]): tear film production was observed
